Here are results for 23 compounds from paper PMC10341786 (International Journal of Molecular Sciences, 2023).

Molecules are shown by their SMILES.

One data set deals with TBEV. Kind of data set: microbe, parasite or virus in culture. The data set is classed as cell-based, Tick-borne encephalitis virus strain Absettarov. To be noted: Tick-borne encephalitis virus, PEK, read-out: TBEV EC50.
The test system of another data set is WNV. Kind of data set: microbe, parasite or virus in culture. The class given is cell-based, West Nile virus strain Strix nebulosa-12. To be noted: for EC50: West Nile virus, Vero, read-out: WNV EC50.
Data set [1] is described as follows: in vitro. The note with it: pig.
Data set [2] is described as follows: in vitro. The note with it: African green monkey.
Data set [3] is described as follows: in vitro. To be noted: African green monkey. This is another data set of the same source.
Data set [4] is described as follows: in vitro. To be noted: pig. This is another data set of the same source.

`O=S(=O)(c1ccccc1)N(C1=NOC2CCCCCCC12)S(=O)(=O)c1ccccc1` (stereo not shown) [5c, N-(3a,4,5,6,7,8,9,9a-Octahydrocycloocta[d]isoxazol-3-yl)-N-(phenylsulfonyl)benzenesulfonamide] came in with a melting point of 107 to 108 °C. Moreover, the EC50 in the data set on TBEV was > 50 µM. Also, the EC50 in the data set on WNV amounted to 18 ± 4 µM. For the same compound, the CC50 in “in vitro [1]” is > 50 µM. For the same compound, the CC50 in the data set “in vitro [2]” was > 50 µM. In addition, the CC50 in the data set “in vitro [3]” is > 50 µM. In the data set “in vitro [4]”, the CC50 was > 50 µM.

In the case of `Nc1onc(C(=O)OCC23CC4CC(CC(C4)C2)C3)c1CCc1ccccc1` [compound 6, reference compound], the EC50 with TBEV came out at 2.29 ± 0.17 µM. Besides, the CC50 in the data set “in vitro [1]”, in the data set “in vitro [3]” and in the data set “in vitro [4]” was > 100 µM each time.

For the compound `O=[N+]([O-])c1ccccc1S(=O)(=O)NC1=NOC2(CCCCCCC2)C1` [3h], the EC50 is 28 ± 7 µM with TBEV and 21.5 ± 0.9 µM in the data set with WNV. Moreover, the CC50 in “in vitro [1]”, in “in vitro [2]”, in “in vitro [3]” and in “in vitro [4]” was > 50 µM in each case.

With `O=S(=O)(c1ccccc1)N(C1=NOC2(CCCCCCC2)C1)S(=O)(=O)c1ccccc1` [4c, N-(Phenylsulfonyl)-N-(1-oxa-2-azaspiro[4.7]dodec-2-en-3-yl)benzenesulfonamide], the melting point lay within 139 to 141 °C. The EC50 in the data set with TBEV stood at 9 ± 2 µM. Besides, the EC50 in the data set with WNV is 2.6 ± 1.4 µM. Further, the CC50 in “in vitro [1]” is > 50 µM. Also, the CC50 in “in vitro [2]” was > 50 µM. Moreover, the CC50 in “in vitro [3]” was > 50 µM. Moreover, the CC50 in the data set “in vitro [4]” was > 50 µM.

As for `O=S(=O)(c1ccc2ccccc2c1)N(C1=NOC2(CCCCCCC2)C1)S(=O)(=O)c1ccc2ccccc2c1` [4j, N-(Naphthalen-2-ylsulfonyl)-N-(1-oxa-2-azaspiro[4.7]dodec-2-en-3-yl)naphthalene-2-sulfonamide], the melting point is 160 to 161 °C. For the same compound, the EC50 in the data set on TBEV amounted to 17 ± 3 µM. Further, in the data set on WNV, the concentration for a half-maximal effect (EC50) is 1.3 ± 0.5 µM. Also, the CC50 in “in vitro [1]” was > 50 µM. In “in vitro [2]”, the CC50 is > 50 µM. Moreover, the CC50 in the data set “in vitro [3]” is > 50 µM. For the same compound, the CC50 in the data set “in vitro [4]” was > 50 µM.

In turn, `O=S(=O)(c1ccc2c(c1)OCCO2)N(C1=NOC2(CCCCCCC2)C1)S(=O)(=O)c1ccc2c(c1)OCCO2` [4f, N-((2,3-Dihydrobenzo[b][1, 4]dioxin-6-yl)sulfonyl)-N-(1-oxa-2-azaspiro[4.7]dodec-2-en-3-yl)-2,3-dihydrobenzo[b][1, 4]dioxine-6-sulfonamide] showed a melting point of 191 to 193 °C. The EC50 with TBEV was found to be 13 ± 6 µM. For the same compound, the EC50 in the data set on WNV was determined as 7.1 ± 1 µM. For the same compound, the CC50 in “in vitro [1]” is > 50 µM. The CC50 in “in vitro [2]” was > 50 µM. Also, the CC50 in the data set “in vitro [3]” was > 50 µM. The CC50 in “in vitro [4]” is > 50 µM.

As for `CS(=O)(=O)NC1=NOC2(CCCCCCC2)C1` [3a], the EC50 in the data set with TBEV was > 100 µM; in the data set with WNV it was 31 ± 2 µM. Further, the CC50 in “in vitro [1]”, in the data set “in vitro [2]”, in the data set “in vitro [3]” and in “in vitro [4]” was > 50 µM in each case.

`Cc1ccc(S(=O)(=O)NC2=NOC3(CCCCCCC3)C2)cc1` [3d]: the values for the EC50 with TBEV and in the data set on WNV were > 50 µM and 14 ± 5 µM, respectively. The CC50 in “in vitro [1]”, in “in vitro [2]”, in “in vitro [3]” and in “in vitro [4]” was > 50 µM throughout.

Take `NC(=O)c1nc(F)c[nH]c1=O` [Favipiravir, reference compound]: in the data set on WNV, the EC50 came out at 102 ± 28 µM. The CC50 in “in vitro [2]”, in “in vitro [3]” and in “in vitro [4]” was > 1000 µM throughout.

In the case of `O=S(=O)(c1ccc2c(c1)OCCO2)N(C1=NOC2CCCCCCC12)S(=O)(=O)c1ccc2c(c1)OCCO2` (stereo not shown) [5f, N-((2,3-Dihydrobenzo[b][1, 4]dioxin-6-yl)sulfonyl)-N-(3a,4,5,6,7,8,9,9a-octahydrocycloocta[d]isoxazol-3-yl)-2,3-dihydrobenzo[b][1, 4]dioxine-6-sulfonamide], the melting point was in the range of 129 to 130 °C. Also, in the data set with TBEV, the EC50 was found to be 29 ± 7 µM. Moreover, in the data set on WNV, the EC50 turned out to be 16 ± 10 µM. Besides, the CC50 in “in vitro [1]” was > 50 µM. Moreover, the CC50 in the data set “in vitro [2]” is > 50 µM. The CC50 in “in vitro [3]” is > 50 µM. Further, in “in vitro [4]”, the CC50 is > 50 µM.

Turning to `O=S(=O)(Cc1ccccc1)N(C1=NOC2CCCCCCC12)S(=O)(=O)Cc1ccccc1` (stereo not shown) [5b, N-(Benzylsulfonyl)-N-(3a,4,5,6,7,8,9,9a-octahydrocycloocta[d]isoxazol-3-yl)-1-phenylmethanesulfonamide], the melting point lay within 198 to 199 °C. For the same compound, in the data set with TBEV, the EC50 was 21.7 ± 2.8 µM. The EC50 in the data set with WNV is 6.3 ± 1.2 µM. Besides, the CC50 in “in vitro [1]” was > 50 µM. Further, the CC50 in “in vitro [2]” was > 50 µM. Further, in “in vitro [3]”, the CC50 is > 50 µM. Further, in the data set “in vitro [4]”, the CC50 is > 50 µM.

Take `O=S(=O)(c1cccnc1)N(C1=NOC2CCCCCCC12)S(=O)(=O)c1cccnc1` (stereo not shown) [5l, N-(3a,4,5,6,7,8,9,9a-Octahydrocycloocta[d]isoxazol-3-yl)-N-(pyridin-3-ylsulfonyl)pyridine-3-sulfonamide]: the melting point lay in the range of 150 to 151 °C. Further, the EC50 in the data set with TBEV was 36 ± 4 µM. In addition, in the data set on WNV, the “anti-WNV activity (in words)” value is recorded as “complete loss of anti-WNV activity” and the EC50 is > 50 µM. In “in vitro [1]”, the CC50 is > 50 µM. For the same compound, the CC50 in “in vitro [2]” was > 50 µM. Besides, the CC50 in the data set “in vitro [3]” was > 50 µM. In addition, in the data set “in vitro [4]”, the CC50 is > 50 µM.

`O=S(=O)(NC1=NOC2(CCCCCCC2)C1)c1ccc2c(c1)OCCO2` [3f]: the EC50 was > 50 µM in the data set with TBEV and 18 ± 6 µM in the data set with WNV. Also, the CC50 in “in vitro [1]”, in the data set “in vitro [2]”, in the data set “in vitro [3]” and in the data set “in vitro [4]” was > 50 µM throughout.

Consider `O=S(=O)(c1ccc(F)cc1F)N(C1=NOC2(CCCCCCC2)C1)S(=O)(=O)c1ccc(F)cc1F` [4g, N-((2,4-Difluorophenyl)sulfonyl)-2,4-difluoro-N-(1-oxa-2-azaspiro[4.7]dodec-2-en-3-yl)benzenesulfonamide], for which the melting point lay within 61 to 62 °C. The EC50 in the data set on TBEV is > 50 µM. Also, the EC50 with WNV turned out to be 9.8 ± 2.6 µM. The CC50 in “in vitro [1]” is > 50 µM. Further, the CC50 in “in vitro [2]” was > 50 µM. The CC50 in the data set “in vitro [3]” is > 50 µM. Also, the CC50 in the data set “in vitro [4]” is > 50 µM.

Regarding `O=S(=O)(c1cccnc1)N(C1=NOC2(CCCCCCC2)C1)S(=O)(=O)c1cccnc1` [4l, N-(Pyridin-3-ylsulfonyl)-N-(1-oxa-2-azaspiro[4.7]dodec-2-en-3-yl)pyridine-3-sulfonamide], the melting point was in the range of 151 to 152 °C. In addition, the EC50 in the data set with TBEV worked out at 15 ± 4 µM. Besides, the EC50 in the data set with WNV is 8 ± 4 µM. In addition, the CC50 in the data set “in vitro [1]” was > 50 µM. The CC50 in the data set “in vitro [2]” is > 50 µM. The CC50 in the data set “in vitro [3]” was > 50 µM. Besides, the CC50 in “in vitro [4]” was > 50 µM.

`O=S(=O)(c1ccc(F)cc1F)N(C1=NOC2CCCCCCC12)S(=O)(=O)c1ccc(F)cc1F` (stereo not shown) [5g, N-((2,4-difluorophenyl)sulfonyl)-2,4-difluoro-N-(3a,4,5,6,7,8,9,9a-octahydrocycloocta[d]isoxazol-3-yl)benzenesulfonamide] yielded a melting point of 129 to 131 °C. Moreover, the EC50 in the data set with TBEV came to 33 ± 15 µM. In the data set on WNV, the EC50 turned out to be 12 ± 6 µM. For the same compound, in “in vitro [1]”, the CC50 is > 50 µM. The CC50 in the data set “in vitro [2]” was > 50 µM. Also, the CC50 in the data set “in vitro [3]” is > 50 µM. Moreover, in “in vitro [4]”, the CC50 was > 50 µM.

As for `Cc1cc(C)c(S(=O)(=O)NC2=NOC3(CCCCCCC3)C2)c(C)c1` [3e], the EC50 with TBEV was 18 ± 7 µM; in the data set with WNV, 22 ± 4 µM. Further, the CC50 in “in vitro [1]”, in “in vitro [2]”, in “in vitro [3]” and in the data set “in vitro [4]” was > 50 µM throughout.

Regarding `Cc1ccc(S(=O)(=O)N(C2=NOC3(CCCCCCC3)C2)S(=O)(=O)c2ccc(C)cc2)cc1` [4d, 4-Methyl-N-(1-oxa-2-azaspiro[4.7]dodec-2-en-3-yl)-N-tosylbenzenesulfonamide], the melting point was in the range of 151 to 153 °C. Also, the concentration giving a half-maximal response (EC50) in the data set with TBEV was determined as 21 ± 13 µM. Also, in the data set on WNV, the EC50 came out at 3 ± 1.9 µM. Further, in “in vitro [1]”, the CC50 was > 50 µM. The CC50 in the data set “in vitro [2]” was > 50 µM. Besides, the CC50 in the data set “in vitro [3]” was > 50 µM. For the same compound, in “in vitro [4]”, the CC50 is > 50 µM.

Take `O=S(=O)(NC1=NOC2(CCCCCCC2)C1)c1ccc(F)cc1F` [3g]: the EC50 in the data set with TBEV was > 100 µM; with WNV it was 28.4 ± 2.2 µM. Further, the CC50 in the data set “in vitro [1]”, in the data set “in vitro [2]”, in “in vitro [3]” and in the data set “in vitro [4]” was > 50 µM in each case.

With `O=S(=O)(NC1=NOC2(CCCCCCC2)C1)c1cccs1` [3k], the EC50 with TBEV was > 100 µM; in the data set on WNV, 6.1 ± 1.3 µM. In addition, the CC50 in the data set “in vitro [1]”, in the data set “in vitro [2]”, in “in vitro [3]” and in “in vitro [4]” was > 50 µM in each case.

For `O=S(=O)(NC1=NOC2(CCCCCCC2)C1)c1cccnc1` [3l], the EC50 is > 100 µM with TBEV and 11 ± 7 µM with WNV. In addition, the CC50 in “in vitro [1]”, in “in vitro [2]”, in the data set “in vitro [3]” and in the data set “in vitro [4]” was > 50 µM throughout.

In the case of `O=S(=O)(NC1=NOC2(CCCCCCC2)C1)c1ccccc1` [3c], the EC50 in the data set on TBEV is > 50 µM; in the data set with WNV, 25 ± 7 µM. Besides, the CC50 in “in vitro [1]”, in “in vitro [2]”, in the data set “in vitro [3]” and in “in vitro [4]” was > 50 µM each time.

As for `O=[N+]([O-])c1ccccc1S(=O)(=O)N(C1=NOC2CCCCCCC12)S(=O)(=O)c1ccccc1[N+](=O)[O-]` (stereo not shown) [5h, 2-Nitro-N-((2-nitrophenyl)sulfonyl)-N-(3a,4,5,6,7,8,9,9a-octahydrocycloocta[d]isoxazol-3-yl)benzenesulfonamide], the melting point lay within 153 to 154 °C. In addition, in the data set with TBEV, the EC50 came to 12 ± 6 µM. Besides, the EC50 with WNV stood at 17 ± 3 µM. The CC50 in the data set “in vitro [1]” was > 50 µM. Besides, in “in vitro [4]”, the CC50 is > 50 µM.
